# Patent publication US20130324413A1, “METHOD FOR PROMOTING PLANT GROWTH” (SUMITOMO CHEMICAL COMPANY, LIMITED, priority 2011, published 2013)
# How the values were obtained:
# Type in all cases: in vivo
# [1] = test system: corn plants (cultivar: Koshu); assay: Test Example 9: corn seed soaking, low-temperature stress, fresh weight of above-ground part; settings: for Average fresh weight of above-ground part: low-temperature stress 3±2° C. 7 days, non-treated 1.18 g
# Experimental: Each of the 1,000-fold concentrated dimethylsulfoxide (DMSO) solutions of compound (1b) was 1,000-fold diluted with water to prepare a soultion of compound (1b) at the test concentration. The solution was dispensed in 30 ml aliquots into […] Petri dishes, in which seeds of corn plants (cultivar: Koshu) were soaked and incubated for 16 hours at 24° C. in the dark. The corn seeds were sown in the culture soil (AISAI) in the plastic pots (55 mm in diameter×58 mm in height), and corn seedlings were grown for 4 days under the following conditions: temperature, 27° C.; illuminance, about 5,000 lux; day length, 16 hours. As a control, a 0.1% aqueous DMSO solution was prepared, and seeds were soaked in this solution and then sown and grown into seedlings in the same way as described above. This group was used as the non-treated group. The corn seedlings were placed in a phytotron under the following conditions in order to expose the plants to low-temperature stress for 7 days. • Conditions: “temperature, 3±2° C.; day length, 16 hours; • illuminance, about 5,000 lux; humidity, 35 to 80%” The plants were then grown for another 7 days under the following conditions: temperature, 27° C.; humidity, 50 to 75%, illuminance, about 5,000 lux; day length, 16 hours. Then the fresh weight of the above-ground part of the plants was measured. The experiment was performed in four replications for each individual plant for each treatment condition and the average weight per individual was calculated.
# [2] = test system: corn plants (cultivar: Koshu); assay: Test Example 3: corn seed soaking, fresh weight of above-ground part
# Experimental: Each of the 1,000-fold concentrated dimethylsulfoxide (DMSO) solutions of compound (1b) was 1,000-fold diluted with water to prepare a soultion of compound (1b) at the test concentration. The solution was dispensed in 30 ml aliquots into […] Petri dishes, in which seeds of corn plants (cultivar: Koshu) were soaked and incubated for 16 hours at 24° C. in the dark. The corn seeds (cultivar: Koshu) were sown in the culture soil (AISAI) in the plastic pots (55 mm in diameter×58 mm in height), and corn seedlings were grown for 18 days under the following, conditions: temperature, 27° C.; illuminance, about 5,000 lux; day length, 16 hours. As a control, a 0.1% aqueous DMSO solution was prepared, and seeds were soaked in this solution and then sown and grown into seedlings in the same way as described above. This group was used as the non-treated group. The fresh weight of the above-ground part of the corn seedlings obtained above was measured. The experiment was performed in four replications for each individual plant at each treatment concentration and the average weight per individual was calculated.
# [3] = test system: Corn (cultivar: PIONEER 120 31P41); assay: Test Example 13: corn soil irrigation, low-temperature stress, growth and chlorophyll; settings: soil irrigation 20 ml, low-temperature stress 2 to 4° C. 5 days
# Experimental: Corn seeds (cultivar: PIONEER 120 31P41) are sown in the culture soil (AISAI) in plastic pots (55 mm in diameter×58 mm in height) and grown for 7 days under the following conditions: temperature, 20 to 25° C.; humidity, 50 to 75%; illuminance, about 5,000 lux; day length, 16 hours. A DMSO solution of compound (1b) at a 1,000-fold concentration relative to each test concentration is diluted with distilled water to prepare a test soultion. Twenty (20) ml of the test solution obtained is applied around the base of each plant by soil irrigation, and then the plants are grown for two days under the following conditions: temperature, 27° C., humidity, 50 to 75%; illuminance, about 5,000 lux; day length 16 hours. This group is the present compound-treated group. The group to which 20 ml of a 0.1% aqueous DMSO solution is applied by soil irrigation in place of the DMSO solution of compound (1b) is used as the non-treated group. The plants subjected to the soil irrigation are grown for 5 days under the following conditions, to expose the plants to low-temperature stress: temperature, 2 to 4° C.; humidity, 40 to 70%, illuminance, about 5,000 lux; day length, 16 hours in a phytotron. After the exposure to low-temperature stress, the plants are grown for 4 days under the conditions of a temperature off20 to 25° C., a humidity of 50 to 75%, an illuminance of about 5,000 lux, and a day length of 16 hours. Then the plant weight and the length of true leaves are measured. Also, after the exposure to low-temperature stress, the plants are grown for 1 day under the conditions of a temperature of 20 to 25° C., a humidity of 50 to 75%, an illuminance of about 5,000 lux, and a day length of 16 hours. Then the chlorophyll fluorescence (Fv/Fm) is measured using a pulse modulation chlorophyll fluorometer (MAXI-IMAGING-PAM, WALZ). The chlorophyll content is measured using a chlorophyll gauge (SPAD-502; manufactured by KONICA MINOLTA).
# [4] = test system: corn seeds (cultivar: Kuromochi); assay: Test Example 1: corn seed coating, fresh weight of above-ground part after 18 days; settings: for Average fresh weight of above-ground part: seed coating, grown 18 days at 27° C., non-treated 4.2 g
# Experimental: A blank slurry solution containing 5% (V/V) color coat red (Becker Underwood, Inc.), 5% (V/V) CF-Clear (Becker Underwood, Inc.) and 0.4% Maxim XL (Syngenta) was prepared. […] In a 50-ml centrifuge tube (manufactured by BD Japan), 0.48 ml of the slurry solution was placed for each 20 g of corn seeds (cultivar: Kuromochi) and stirred until the solution was dried, thereby coating the seeds. As a control, seeds were coated with the blank slurry solution and used as seeds for a non-treated group. Two treated corn seeds were sown in the culture soil (AISAI) in each plastic pot (55 mm in diameter×58 mm in height) and grown for 18 days under the following conditions: temperature, 27° C.; illuminance, about 5,000 lux; day length, 16 hours. The fresh weight of the above-ground part of the plants was measured. The experiment was performed in four replications for each treatment condition and the average weight per individual was calculated.
structure (smiles),measurement,setting,value
"CNC(=O)C(OC)c1ccccc1COc1cc(C)ccc1C (racemic) [Compound (1b), N-methyl-2-[2-(2,5-dimethylphenoxy)methyl]phenyl-2-methoxyacetamide]",fresh weight of the above-ground part as compared with the non-treated group,"[1]; plants exposed to low-temperature stress, concentration range of 3 ppm to 30 ppm",increased
same,Average fresh weight of above-ground part,[1]; seed soaking 3 ppm,1.49 g
same,Average fresh weight of above-ground part,[1]; seed soaking 10 ppm,2.25 g
same,Average fresh weight of above-ground part,[1]; seed soaking 30 ppm,1.35 g
same,fresh weight of the above-ground part as compared with the non-treated group,[2]; concentration of 3 ppm,increased
same,Average fresh weight of above-ground part,"[2]; seed soaking 3 ppm, 16 hours, grown 18 days, non-treated 4.47 g",6.60 g
same,chlorophyll fluorescence (Fv/Fm) as compared with the non-treated group,[3]; then 1 day growth,increases
same,length of true leaves as compared with the non-treated group,[3]; then 4 days growth,increased
same,plant weight as compared with the non-treated group,[3]; then 4 days growth,increased
same,chlorophyll content as compared with the non-treated group,[3]; chlorophyll gauge SPAD-502,increases
same,Relative value (fresh weight of above-ground part),"[4]; 12.5 g/ of seeds, non-treated = 100",105%
same,fresh weight of the above-ground part as compared with the control group,[4]; amount ranging from 10 g to 50 g per 100 kg of seeds,increased
same,Average fresh weight of above-ground part,[4]; amount of compound 10 g/ of seeds,4.4 g
same,Average fresh weight of above-ground part,[4]; amount of compound 12.5 g/ of seeds,4.4 g
same,Average fresh weight of above-ground part,[4]; amount of compound 25 g/ of seeds,5.0 g
same,Average fresh weight of above-ground part,[4]; amount of compound 50 g/ of seeds,4.5 g
